Experimental data from patent US9464077B2, “Nitrogen-containing aromatic heterocyclic compound” (Astellas Pharma Inc., priority 2012, dated 2016).
pIC50: −log10 of the molar value.

What was measured:
[1] = molecular target: human recombinant FGFR1 (Homo sapiens, UniProt P11362); test: FGFR1 enzyme assay (LabChip EZ Reader)
Protocol: (§2) The compound was diluted with a solution of dimethyl sulfoxide (DMSO) (10-fold common ratio, 4 portions) before dilution with a reaction buffer (100 mM HEPES (pH7.5), 0.003% Brij-35, 0.004% Tween 20, 0.5 mM DTT, and 10 mM MgCl2) so that the final DMSO concentration was 2%. To 4 μL of the compound solution in a 384-well plate, 2 μL each of FGFR1 enzyme (2 or 3 ng/μL), FGFR2 enzyme (2 ng/μL), or FGFR3 enzyme (6 ng/μL) which were diluted with the reaction buffer was added. […] After the reaction was stopped, the reaction mixture was measured with a LabChip EZ Reader. The IC50 values were calculated by non-linear regression based on the inhibition rates obtained.

[2] = system: UM-UC-14 (FGFR3_S249C-positive cells, bladder cancer); test: Antitumor test on UM-UC-14 subcutaneous xenograft; format: in vivo, nude mice; conditions: oral, once a day; for Antitumor Activity, % regression / inhibition in vivo at 1 mg/kg/day: 1 mg/kg/day; for Antitumor Activity, % regression: tumor volume at Day 11 vs Day 1
Protocol: 3×10^6 UM-UC-14 cells per 0.1 mL (PBS+matrigel, 1:1) were inoculated subcutaneously into the right flank of nude mice (CAnN, Cg-Foxn1nu/CrlCrlj (nu/nu), male, 4- to 5-week-old), and when their tumor size reached about 250 mm^3, drug administration was started (Day 1). The drug was administered once a day and the tumor size was measured with a caliper and the body weight was also measured every two or three days. The antitumor effect was finally determined based on the tumor volume (mm^3; minor axis (mm)×minor axis (mm)×major axis (mm)/2) at Day 11 (n=3-5). To the control group, 0.5% MC (methyl cellulose) was administered. […] “% regression” indicates what percentage of regression could be achieved compared with the tumor volume at Day 1. Here, the tumor volume at Day 1 means tumor volume immediately before drug administration.

[3] = molecular target: human recombinant FGFR3 (Homo sapiens, UniProt P22607); test: FGFR3 enzyme assay (LabChip EZ Reader)
Protocol: as §2

[4] = molecular target: human recombinant FGFR2 (Homo sapiens, UniProt P21802); test: FGFR2 enzyme assay (LabChip EZ Reader)
Protocol: as §2

[5] = system: FGFR3_S249C/NIH3T3 cells; test: Growth assay of cells with forced expression of mutant FGFR3; format: cell-based; conditions: Mus musculus, NIH3T3, 120 h; 5 days after addition, CellTiter-Glo; read-out: IC50 (growth inhibition)
Protocol: FGFR3_S249C/NIH3T3 cells were added to a 96-well spheroid plate (U bottom) at a concentration of 3000 cells/well/90 μL, and the compound solution (10 μL) was added thereto on the next day (final DMSO concentration: 0.1%). The compound solution was prepared by serially diluting the compound with DMSO at a 3-fold common ratio (9 portions and DMSO only) from the maximum concentration of 10 mM and then diluted 100-fold with a culture medium (D-MEM, 10% FBS). 5 days after the addition of the compound, the growth inhibition caused by the compound was evaluated by Promega (G7573) CellTiter-Glo™ Luminescent Cell Viability Assay.

[6] = system: bladder cancer patient-derived cell line RT4; test: Anchorage-independent cell growth inhibition, spheroid plate; format: cell-based; conditions: Homo sapiens, 96 h, 4 days, read-out: growth inhibition rate RT4; for inhibition at 0.001 µM: 1 nM; for inhibition at 0.01 µM: 10 nM; for inhibition at 0.1 µM: 100 nM
[7] = system: FGFR3-TACC3_v3 (N-FLAG) fusion polypeptide; test: In vitro kinase activity inhibition (HTRF KinEASE-TK); format: biochemical, human; conditions: 100 μM ATP
[8] = system: FGFR3-TACC3_v2 (N-FLAG) fusion polypeptide; test: as above; format: biochemical, human; conditions: 100 μM ATP
[9] = system: FGFR3-BAIAP2L1-expressing NIH3T3 cells; test: Anchorage-independent cell growth inhibition, spheroid plate; format: cell-based; conditions: Mus musculus, NIH3T3, 96 h, 4 days, read-out: growth inhibition rate FGFR3-BAIAP2L1-expressing NIH3T3 Cells; for inhibition at 0.001 µM: 1 nM; for inhibition at 0.01 µM: 10 nM; for inhibition at 0.1 µM: 100 nM
Protocol: (§1) In a 96-well spheroid plate (Sumilon Celltight Spheroid 96U; Sumitomo Bakelite), FGFR3-BAIAP2L1-expressing NIH3T3 cells were seeded at 1×10^3 cells per well in D-MEM medium containing 10% fetal bovine serum. A well supplemented with only medium was also prepared for a positive control. Culturing was performed overnight in the presence of 5% CO2 at 37° C. followed by addition of test compounds (final concentrations: 100 nM, 10 nM, and 1 nM). As a negative control, DMSO used as a solvent for the compounds was added at the same concentration (0.1%) as in the case of addition of the compounds. Then, culturing was performed in the presence of 5% CO2 at 37° C. for 4 days, and a cell counting reagent (CellTiter-Glo™ Luminescent Cell Viability Assay; Promega) was added and the resulting mixture was stirred for 20 minutes followed by measurement with a luminometer.

[10] = system: FGFR3-TACC3_v4-expressing NIH3T3 cells; test: as above; format: cell-based; conditions: Mus musculus, NIH3T3, 96 h, 4 days, read-out: growth inhibition rate v4; for inhibition at 0.001 µM: 1 nM; for inhibition at 0.01 µM: 10 nM; for inhibition at 0.1 µM: 100 nM
Text: Measurement for anchorage-independent cell growth (colony method, etc.) is known to be a system for investigating the anticancer action (pharmacological effect) of compounds (Clinical Oncology, second edition, Cancer and Chemotherapy Publishers Inc.). As a method for measuring the non-adhesive growth of cells, there is the following method using a spheroid plate as referred to above in place of the colony method.
as §1, with “Bakelite), FGFR3-TACC3_v1-expressing NIH3T3 cells, FGFR3-TACC3_v2-expressing NIH3T3 cells, FGFR3-TACC3_v3-expressing NIH3T3 cells, and FGFR3-TACC3_v4-expressing” for “Bakelite), FGFR3-BAIAP2L1-expressing”, “were each” for “were”, “D-MEM media (Invitrogen)” for “D-MEM medium”, “serum. […]” for “serum.”

[11] = system: FGFR3-TACC3_v1 (N-FLAG) fusion polypeptide; test: In vitro kinase activity inhibition (HTRF KinEASE-TK); format: biochemical, human; conditions: 100 μM ATP
[12] = Mus musculus, UMUC14, 264 h, tumor volume at Day 11

human recombinant FGFR3, sequence (P22607 23-806): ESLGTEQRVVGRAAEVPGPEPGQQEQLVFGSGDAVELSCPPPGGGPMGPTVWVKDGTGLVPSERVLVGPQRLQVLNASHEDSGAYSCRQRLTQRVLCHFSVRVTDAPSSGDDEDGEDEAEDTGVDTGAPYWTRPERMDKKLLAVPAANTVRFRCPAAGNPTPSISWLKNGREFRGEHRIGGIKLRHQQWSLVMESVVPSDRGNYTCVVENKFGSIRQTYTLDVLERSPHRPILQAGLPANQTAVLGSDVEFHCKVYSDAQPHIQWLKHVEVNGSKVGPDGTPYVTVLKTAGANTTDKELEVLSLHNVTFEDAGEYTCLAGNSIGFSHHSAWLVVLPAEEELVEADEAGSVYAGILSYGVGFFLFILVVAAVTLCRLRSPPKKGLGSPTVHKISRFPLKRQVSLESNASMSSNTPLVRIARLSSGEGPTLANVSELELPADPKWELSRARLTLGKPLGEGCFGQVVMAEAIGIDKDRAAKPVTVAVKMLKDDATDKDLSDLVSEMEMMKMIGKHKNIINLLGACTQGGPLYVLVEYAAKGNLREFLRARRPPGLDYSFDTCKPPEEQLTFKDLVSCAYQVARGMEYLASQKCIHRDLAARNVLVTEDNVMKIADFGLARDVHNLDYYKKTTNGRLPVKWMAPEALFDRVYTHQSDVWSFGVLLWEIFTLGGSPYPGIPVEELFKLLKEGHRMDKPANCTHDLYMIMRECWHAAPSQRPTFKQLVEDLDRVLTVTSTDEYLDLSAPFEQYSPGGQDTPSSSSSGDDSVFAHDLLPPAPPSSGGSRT
human recombinant FGFR2, sequence (P21802 22-821): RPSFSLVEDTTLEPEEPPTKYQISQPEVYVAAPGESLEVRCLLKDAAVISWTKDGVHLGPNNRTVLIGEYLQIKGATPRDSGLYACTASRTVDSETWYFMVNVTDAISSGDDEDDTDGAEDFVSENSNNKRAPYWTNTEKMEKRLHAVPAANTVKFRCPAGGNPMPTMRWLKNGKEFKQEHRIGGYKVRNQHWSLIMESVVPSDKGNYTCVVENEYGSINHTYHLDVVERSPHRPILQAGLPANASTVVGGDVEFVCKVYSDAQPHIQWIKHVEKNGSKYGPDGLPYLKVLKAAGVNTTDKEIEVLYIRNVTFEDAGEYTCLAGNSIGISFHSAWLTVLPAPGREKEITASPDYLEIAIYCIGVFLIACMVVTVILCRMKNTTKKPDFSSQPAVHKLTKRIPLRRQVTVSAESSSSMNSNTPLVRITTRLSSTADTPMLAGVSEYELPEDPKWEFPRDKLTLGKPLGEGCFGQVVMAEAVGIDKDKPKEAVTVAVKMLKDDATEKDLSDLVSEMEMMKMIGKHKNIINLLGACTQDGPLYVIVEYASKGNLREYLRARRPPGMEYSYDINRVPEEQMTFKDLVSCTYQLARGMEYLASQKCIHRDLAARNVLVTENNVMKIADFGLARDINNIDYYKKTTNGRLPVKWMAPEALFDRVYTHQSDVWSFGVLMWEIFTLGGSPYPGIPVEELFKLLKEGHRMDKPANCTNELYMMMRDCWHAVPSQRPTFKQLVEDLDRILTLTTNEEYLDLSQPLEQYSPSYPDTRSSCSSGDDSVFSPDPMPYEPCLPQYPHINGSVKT
human recombinant FGFR1, sequence (P11362 22-822): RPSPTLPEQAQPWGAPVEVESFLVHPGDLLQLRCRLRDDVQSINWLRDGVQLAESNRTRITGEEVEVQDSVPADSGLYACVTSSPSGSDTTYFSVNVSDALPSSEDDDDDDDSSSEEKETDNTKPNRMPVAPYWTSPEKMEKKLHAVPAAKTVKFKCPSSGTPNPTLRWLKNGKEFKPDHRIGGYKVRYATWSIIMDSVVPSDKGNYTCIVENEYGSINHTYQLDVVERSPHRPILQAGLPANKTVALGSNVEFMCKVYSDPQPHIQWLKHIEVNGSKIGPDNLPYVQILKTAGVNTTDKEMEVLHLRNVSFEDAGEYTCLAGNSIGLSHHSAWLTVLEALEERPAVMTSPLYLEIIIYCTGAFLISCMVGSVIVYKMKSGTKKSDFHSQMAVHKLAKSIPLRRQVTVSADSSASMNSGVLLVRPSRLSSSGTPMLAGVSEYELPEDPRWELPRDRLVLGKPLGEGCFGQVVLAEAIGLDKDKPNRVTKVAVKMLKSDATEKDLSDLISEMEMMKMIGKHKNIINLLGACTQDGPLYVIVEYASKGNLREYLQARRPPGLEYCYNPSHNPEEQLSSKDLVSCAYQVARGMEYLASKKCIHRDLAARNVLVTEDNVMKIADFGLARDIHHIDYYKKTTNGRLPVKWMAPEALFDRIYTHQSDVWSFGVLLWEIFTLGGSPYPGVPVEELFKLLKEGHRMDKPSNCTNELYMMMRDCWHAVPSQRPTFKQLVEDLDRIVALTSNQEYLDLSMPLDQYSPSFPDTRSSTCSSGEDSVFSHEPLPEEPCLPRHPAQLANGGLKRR

| pIC50 [1] | pIC50 [3] | pIC50 [4] | SMILES | Antitumor Activity, % regression [2] [%] | pIC50 [5] | inhibition in vivo at 1 mg/kg/day [2, 12] [%] | inhibition at 0.001 µM [6] [%] | inhibition at 0.01 µM [6] [%] | inhibition at 0.1 µM [6] [%] | rate of inhibiting kinase activity v3 ([7]; 1 nM) [%] | rate of inhibiting kinase activity v3 ([7]; 100 nM) [%] | rate of inhibiting kinase activity v2 ([8]; 1 nM) [%] | rate of inhibiting kinase activity v2 ([8]; 10 nM) [%] | rate of inhibiting kinase activity v2 ([8]; 100 nM) [%] | inhibition at 0.001 µM [9] [%] | inhibition at 0.01 µM [9] [%] | inhibition at 0.001 µM [10] [%] | inhibition at 0.01 µM [10] [%] | rate of inhibiting kinase activity v1 ([11]; 10 nM) [%] | rate of inhibiting kinase activity v1 ([11]; 100 nM) [%] | other results |
| --- | --- | --- | --- | --- | --- | --- | --- | --- | --- | --- | --- | --- | --- | --- | --- | --- | --- | --- | --- | --- | --- |
| 8.70 | 9.00 | 8.70 | COc1cc(Nc2ncc(OCc3c(F)c(OC)cc(OC)c3F)cn2)ccc1N1CCN(C2CCN(C)CC2)CC1 [Example 84] | 34 | 7.80 | – | – | – | – | – | – | – | – | – | – | – | – | – | – | – | – |
| – | 9.00 | 8.70 | COc1cc(Nc2ncc(OCc3c(F)c(OC)cc(OC)c3F)cn2)ccc1N1C[C@@H](C)N[C@@H](C)C1 [Example 92] | – | 8.15 | 49 | – | – | – | – | – | – | – | – | – | – | – | – | – | – | – |
| – | 8.70 | – | COc1cc(Nc2ncc(OCc3c(F)c(OC)cc(OC)c3F)cn2)ccc1N1CCC2(CCNCC2)CC1 [Example 95] | – | 7.24 | – | – | – | – | – | – | – | – | – | – | – | – | – | – | – | inhibition in vivo at 3 mg/kg/day ([2]; Mus musculus, UMUC14, 264 h, 3 mg/kg/day, tumor volume at Day 11): 97% |
| 8.70 | 9.00 | – | COc1cc(OC)c(F)c(COc2cnc(Nc3cnn(CCN4CCN(C)CC4)c3)nc2)c1F [Example 114] | 33 | 8.15 | – | – | – | – | – | – | – | – | – | – | – | – | – | – | – | – |
| 8.70 | 8.70 | – | COc1cc(OC)c(F)c(COc2cnc(Nc3cnn(CC(=O)N4CC(O)C4)c3)nc2)c1F [Example 115] | – | 7.44 | 70 | – | – | – | – | – | – | – | – | – | – | – | – | – | – | – |

| SMILES | pIC50 [1] | pIC50 [3] | pIC50 [4] | Antitumor Activity, % regression [2] [%] | pIC50 [5] | inhibition in vivo at 1 mg/kg/day [2, 12] [%] | inhibition at 0.001 µM [6] [%] | inhibition at 0.01 µM [6] [%] | inhibition at 0.1 µM [6] [%] | rate of inhibiting kinase activity v3 ([7]; 1 nM) [%] | rate of inhibiting kinase activity v3 ([7]; 100 nM) [%] | rate of inhibiting kinase activity v2 ([8]; 1 nM) [%] | rate of inhibiting kinase activity v2 ([8]; 10 nM) [%] | rate of inhibiting kinase activity v2 ([8]; 100 nM) [%] | inhibition at 0.001 µM [9] [%] | inhibition at 0.01 µM [9] [%] | inhibition at 0.001 µM [10] [%] | inhibition at 0.01 µM [10] [%] | rate of inhibiting kinase activity v1 ([11]; 10 nM) [%] | rate of inhibiting kinase activity v1 ([11]; 100 nM) [%] | other results |
| --- | --- | --- | --- | --- | --- | --- | --- | --- | --- | --- | --- | --- | --- | --- | --- | --- | --- | --- | --- | --- | --- |
| COc1cc(OC)c(F)c(COc2cnc(Nc3cnn(C[C@@H](O)CO)c3)nc2)c1F [Example 116] | 9.00 | 8.70 | – | 54 | 8.10 | – | 8 | 39 | 63 | 41 | 96 | 22 | 73 | 95 | 15 | 74 | 11 | 70 | 79 | 95 | – |
| COc1cc(OC)c(F)c(COc2cnc(Nc3ccc(N4CCN(C)CC4)cc3)nc2)c1F [Example 122] | – | 8.70 | 8.70 | 15 | 8.15 | – | 6 | 43 | 63 | 45 | 97 | 27 | 80 | 95 | 17 | 83 | 19 | 82 | 80 | 94 | rate of inhibiting kinase activity v3 ([7]; 10 nM): 85%; inhibition at 0.1 µM [9]: 90%; inhibition at 0.1 µM [10]: 89%; rate of inhibiting kinase activity v1 ([11]; 1 nM): 34% |
| COc1cc(OC)c(F)c(COc2cnc(Nc3cc(CN4CCN(C)CC4)n(C)n3)nc2)c1F [Example 248] | 8.40 | 8.30 | – | – | 7.30 | 95 | 3 | 10 | 43 | 30 | 91 | 6 | 25 | 78 | -3 | 19 | -5 | 26 | 40 | 86 | rate of inhibiting kinase activity v3 ([7]; 10 nM): 55%; inhibition at 0.1 µM [9]: 82%; inhibition at 0.1 µM [10]: 83%; rate of inhibiting kinase activity v1 ([11]; 1 nM): 7% |
